In patent publication US11584763B2, “Chromenopyridine derivatives as phosphatidylinositol phosphate kinase inhibitors” (HIBERCELL, INC., priority 2017, dated 2023):

Columns and labels:
Type in all cases: biochemical
PIP4K2B = molecular target: T1, PIP4K2B (Homo sapiens, UniProt P78356); experiment: Trans-FI P kinase assay PIP4K2B (PIP4KtypeIIB inhibition assay); conditions: compounds listed under IC50 bin headings; 100 uM GTP; read-out: Trans-FI P kinase assays: PIP4K2B IC50
T1 construct: made in house; host or cells: E. coli
T1 sequence (P78356 1-416): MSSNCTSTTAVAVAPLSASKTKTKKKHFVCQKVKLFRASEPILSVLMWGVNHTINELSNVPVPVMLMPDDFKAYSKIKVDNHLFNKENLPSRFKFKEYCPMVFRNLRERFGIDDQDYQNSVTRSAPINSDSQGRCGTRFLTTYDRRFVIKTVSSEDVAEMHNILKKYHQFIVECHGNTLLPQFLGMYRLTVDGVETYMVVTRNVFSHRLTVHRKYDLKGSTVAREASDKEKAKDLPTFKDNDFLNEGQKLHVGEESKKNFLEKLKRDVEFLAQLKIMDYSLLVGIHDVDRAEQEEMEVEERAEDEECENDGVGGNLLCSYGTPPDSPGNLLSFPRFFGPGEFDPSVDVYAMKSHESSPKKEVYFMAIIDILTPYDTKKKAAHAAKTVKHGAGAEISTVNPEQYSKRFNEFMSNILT
How it was run: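 Transcreener FI fluorescence read-out of GDP formed by E. coli-expressed GST-PIP4K2B (5 nM) using 100 uM GTP and 80 uM PI5P with DOPE carrier lipid, pH 7.3, 2 h reaction. Compounds (up to 4.8 uM) were preincubated with enzyme 1 h at 27 C; IC50 fitted from residual activity relative to no-inhibitor control.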

PIP4K 2A [1] = molecular target: T2, PIP4K 2A (Homo sapiens, UniProt P48426); experiment: Kinase Assay PIP4K2 A (PIP4KtypeIIA inhibition assay); parameters: made in house; host or cells: E. coli; conditions: compounds listed under IC50 bin headings
T2 sequence (P48426 1-406): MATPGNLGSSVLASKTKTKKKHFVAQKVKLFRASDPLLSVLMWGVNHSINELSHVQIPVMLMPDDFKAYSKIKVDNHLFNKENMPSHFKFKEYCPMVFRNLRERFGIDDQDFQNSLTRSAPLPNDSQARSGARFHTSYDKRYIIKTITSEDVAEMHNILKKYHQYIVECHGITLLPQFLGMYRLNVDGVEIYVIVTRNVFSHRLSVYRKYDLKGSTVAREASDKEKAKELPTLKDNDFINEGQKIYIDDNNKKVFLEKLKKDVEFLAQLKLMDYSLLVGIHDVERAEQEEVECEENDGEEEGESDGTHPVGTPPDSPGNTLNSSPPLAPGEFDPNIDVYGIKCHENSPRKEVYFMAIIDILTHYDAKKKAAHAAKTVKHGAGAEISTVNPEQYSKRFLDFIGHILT
How it was run: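 GST-tagged enzyme from E. coli at 0.5 nM final was preincubated with compound for 1 h at 27 C, then reacted with 10 uM ATP, 80 uM PI5P and DOPE carrier in 50 mM HEPES pH 7.3, 5% DMSO. After 1 h, ADP was measured by ADP-Glo luminescence against a calibration curve. IC50 was fitted from % residual activity.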

PIP4K 2A [2] = molecular target: T2, PIP4K 2A; experiment: ADP-glo kinase assay PIP4K 2A; parameters: 4 nM PIP4K2A (full length protein, SignalChem); purchased SignalChem; conditions: compounds listed under IC50 bin headings
How it was run: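 Inhibition was calculated versus DMSO controls from ADP-Glo luminescence and fitted to IC50 over a 10-point, threefold series. Compound was first pre-incubated 15 min at room temperature with PIP4K2A (full-length; 4 nM in the enzyme/substrate mix) and PI(5)P diC8 (100 μM in that mix). The reaction then ran for 1 h after adding 60 μM ATP solution, in MOPS pH 7.2/MgCl2/Tween buffer.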

Compound	IC50 (PIP4K2B)	IC50 (PIP4K 2A [1])	IC50 (PIP4K 2A [2])
CC1Oc2cc(N3CCCC3=O)ccc2-c2cnc(Nc3cncc(N4CCOCC4=O)c3)cc21 (stereo not drawn) [Example 95, 4-(5-((5-methyl-8-(2-oxopyrrolidin-1-yl)-5H-chromeno[4,3-c]pyridin-3-yl)amino)pyridin-3-yl)morpholin-3-one]	0.1 to 1 µM	0.001 to 0.01 µM	0.01 to 0.1 µM
CC1Oc2cc(N3CCCC3=O)ccc2-c2cnc(Nc3cncc(N4CCOCC4)c3)cc21 (stereo not drawn) [Example 96, 1-(5-methyl-3-((5-morpholinopyridin-3-yl)amino)-5H-chromeno[4,3-c]pyridin-8-yl)pyrrolidin-2-one]	0.1 to 1 µM	0.001 to 0.01 µM	0.001 to 0.01 µM
Cc1cncc(Nc2cc3c(cn2)-c2ccc(N4CCCC4=O)cc2OC3C)c1 (stereo not drawn) [Example 97, 1-(5-methyl-3-((5-methylpyridin-3-yl)amino)-5H-chromeno[4,3-c]pyridin-8-yl)pyrrolidin-2-one]	0.1 to 1 µM	≤ 0.001 µM	0.001 to 0.01 µM
CC(=O)Nc1cncc(Nc2cc3c(cn2)-c2ccc(N4CCCC4=O)cc2OC3C)c1 (stereo not drawn) [Example 100, N-(5-((5-methyl-8-(2-oxopyrrolidin-1-yl)-5H-chromeno[4,3-c]pyridin-3-yl)amino)pyridin-3-yl)acetamide]	0.01 to 0.1 µM	≤ 0.001 µM	0.01 to 0.1 µM
CC1Oc2cc(N3CCCC3=O)ccc2-c2cnc(Nc3cncc(NC(=O)NCc4ccccc4)c3)cc21 (stereo not drawn) [Example 103, 1-benzyl-3-(5-((5-methyl-8-(2-oxopyrrolidin-1-yl)-5H-chromeno[4,3-c]pyridin-3-yl)amino)pyridin-3-yl)urea]	0.01 to 0.1 µM	≤ 0.001 µM	0.001 to 0.01 µM
CC1Oc2cc(N3CCCC3=O)ccc2-c2cnc(Nc3cncc(NC(=O)c4cccc(N)c4)c3)cc21 (stereo not drawn) [Example 106, 3-amino-N-(5-((5-methyl-8-(2-oxopyrrolidin-1-yl)-5H-chromeno[4,3-c]pyridin-3-yl)amino)pyridin-3-yl)benzamide]	0.01 to 0.1 µM	≤ 0.001 µM	0.001 to 0.01 µM
CC1Oc2cc(N3CCCC3=O)ccc2-c2cnc(Nc3ccnnc3)cc21 (stereo not drawn) [Example 127, 1-(5-methyl-3-(pyridazin-4-ylamino)-5H-chromeno[4,3-c]pyridin-8-yl)pyrrolidin-2-one]	> 1 µM	0.01 to 0.1 µM	0.1 to 1 µM
CC1Oc2cc(N3CCCC3=O)ccc2-c2cnc(Nc3cccnn3)cc21 (stereo not drawn) [Example 128, 1-(5-methyl-3-(pyridazin-3-ylamino)-5H-chromeno[4,3-c]pyridin-8-yl)pyrrolidin-2-one]	0.1 to 1 µM	0.001 to 0.01 µM	0.01 to 0.1 µM
CC1Oc2cc(N3CCCC3=O)ccc2-c2cnc(Nc3cncc(Nc4ccccn4)c3)cc21 (stereo not drawn) [Example 130, 1-(5-methyl-3-((5-(pyridin-2-ylamino)pyridin-3-yl)amino)-5H-chromeno[4,3-c]pyridin-8-yl)pyrrolidin-2-one]	0.01 to 0.1 µM	0.001 to 0.01 µM	0.001 to 0.01 µM
CC1Oc2cc(N3CCCC3=O)ccc2-c2cnc(Nc3cncc(Nc4cccnn4)c3)cc21 (stereo not drawn) [Example 131, 1-(5-methyl-3-((5-(pyridazin-3-ylamino)pyridin-3-yl)amino)-5H-chromeno[4,3-c]pyridin-8-yl)pyrrolidin-2-one]	0.01 to 0.1 µM	≤ 0.001 µM	0.001 to 0.01 µM
CC1(C)Oc2cc(N3CCCC3=O)c(F)cc2-c2cnc(Nc3cnc4c(c3)N3C(=O)CC[C@H]3CO4)cc21 [Example 148, (S)-2-((9-fluoro-5,5-dimethyl-8-(2-oxopyrrolidin-1-yl)-5H-chromeno[4,3-c]pyridin-3-yl)amino)-6,6a,7,8-tetrahydro-9H-pyrido[2,3-b]pyrrolo[1,2-d][1,4]oxazin-9-one]	0.001 to 0.01 µM	≤ 0.001 µM	≤ 0.001 µM
CC1(C)Oc2cc(N3CCCC3=O)c(F)cc2-c2cnc(Nc3cncc(N4CCNC4=O)c3)cc21 [Example 149, 1-(5-((9-fluoro-5,5-dimethyl-8-(2-oxopyrrolidin-1-yl)-5H-chromeno[4,3-c]pyridin-3-yl)amino)pyridin-3-yl)imidazolidin-2-one]	0.01 to 0.1 µM	≤ 0.001 µM	0.001 to 0.01 µM
CC1(C)Oc2cc(N3CCCC3=O)ccc2-c2cnc(Nc3cnc4c(c3)OCCO4)cc21 [Example 164, 1-(3-((2,3-dihydro-[1,4]dioxino[2,3-b]pyridin-7-yl)amino)-5,5-dimethyl-5H-chromeno[4,3-c]pyridin-8-yl)pyrrolidin-2-one]	0.01 to 0.1 µM	≤ 0.001 µM	0.001 to 0.01 µM
CC1(C)Oc2cc(N3CCCC3=O)c(F)cc2-c2cnc(Nc3cnc4c(c3)OCCO4)cc21 [Example 167, 1-(3-((2,3-dihydro-[1,4]dioxino[2,3-b]pyridin-7-yl)amino)-9-fluoro-5,5-dimethyl-5H-chromeno[4,3-c]pyridin-8-yl)pyrrolidin-2-one]	0.01 to 0.1 µM	≤ 0.001 µM	≤ 0.001 µM
COCCC(=O)N1CCN(c2cncc(Nc3cc4c(cn3)-c3ccc(N5CCCC5=O)cc3OC4(C)C)c2)CC1 [Example 170, 1-(3-((5-(4-(3-methoxypropanoyl)piperazin-1-yl)pyridin-3-yl)amino)-5,5-dimethyl-5H-chromeno[4,3-c]pyridin-8-yl)pyrrolidin-2-one]	0.01 to 0.1 µM	≤ 0.001 µM	0.001 to 0.01 µM
COCCC(=O)N1CCN(c2cncc(Nc3cc4c(cn3)-c3cc(F)c(N5CCCC5=O)cc3OC4(C)C)c2)CC1 [Example 173, 1-(9-fluoro-3-((5-(4-(3-methoxypropanoyl)piperazin-1-yl)pyridin-3-yl)amino)-5,5-dimethyl-5H-chromeno[4,3-c]pyridin-8-yl)pyrrolidin-2-one]	0.01 to 0.1 µM	0.001 to 0.01 µM	0.001 to 0.01 µM
C[C@H]1Oc2cc(N3CCCC3=O)ccc2-c2cnc(Nc3cnc4c(c3)N3C(=O)CC[C@H]3CO4)cc21 [Example 192, (S)-2-(((R)-5-methyl-8-(2-oxopyrrolidin-1-yl)-5H-chromeno[4,3-c]pyridin-3-yl)amino)-6,6a,7,8-tetrahydro-9H-pyrido[2,3-b]pyrrolo[1,2-d][1,4]oxazin-9-one]	0.01 to 0.1 µM	≤ 0.001 µM	≤ 0.001 µM
O=C1CCCN1c1ccc2c(c1)OC1(COC1)c1cc(Nc3cnc4c(c3)N3C(=O)CC[C@H]3CO4)ncc1-2 [Example 194, (S)-2-((8-(2-oxopyrrolidin-1-yl)spiro[chromeno[4,3-c]pyridine-5,3′-oxetan]-3-yl)amino)-6,6a,7,8-tetrahydro-9H-pyrido[2,3-b]pyrrolo[1,2-d][1,4]oxazin-9-one]	0.001 to 0.01 µM	0.001 to 0.01 µM	≤ 0.001 µM
O=C1CCCN1c1ccc2c(c1)OC1(CCC1)c1cc(Nc3cnc4c(c3)N3C(=O)CC[C@H]3CO4)ncc1-2 [Example 195, (S)-2-((8-(2-oxopyrrolidin-1-yl)spiro[chromeno[4,3-c]pyridine-5,1′-cyclobutan]-3-yl)amino)-6,6a,7,8-tetrahydro-9H-pyrido[2,3-b]pyrrolo[1,2-d][1,4]oxazin-9-one]	0.001 to 0.01 µM	≤ 0.001 µM	≤ 0.001 µM
O=C1CCCN1c1ccc2c(c1)OCc1c(-c3ccncc3)cncc1-2 [Example 202, 1-(4-(pyridin-4-yl)-5H-chromeno[4,3-c]pyridin-8-yl)pyrrolidin-2-one]	> 1 µM	0.1 to 1 µM	> 1 µM
